Values after ≈ are worked out from the molar mass of the structure shown.
Columns and labels:
[1] = in vitro; conditions: human, hepatocytes
[2] = in vitro; design: species or system CT26; conditions: human, hepg2 cells
[3] = tested on: human primary T cells; assay: cells; conditions: T-cell, read-out: IL-2 increase EC50 (nM)
[4] = physchem; conditions: aqueous buffer, pH 7.4, aqueous buffer
[5] = molecular target: CYP2C19 (Homo sapiens, UniProt P33261); assay: in vitro
[6] = in vitro; conditions: rat, plasma
[7] = in vitro; conditions: dog, plasma
[8] = in vitro; conditions: mouse, plasma
[9] = molecular target: CYP2D6 (Homo sapiens, UniProt P10635); assay: in vitro
[10] = in vitro; design: species or system HepG2; conditions: mouse, ct26 cells
[11] = in vitro; conditions: mouse, hepatocytes
[12] = molecular target: T1, hERG (Homo sapiens, UniProt Q12809, species not given); assay: in vitro
[13] = in vitro; conditions: dog, hepatocytes
[14] = in vitro; conditions: human, plasma
[15] = molecular target: CYP2C9 (Homo sapiens, UniProt P11712); assay: in vitro
[16] = molecular target: T1, hERG; assay: in vitro; remark: listed apart in the source
[17] = in vitro; conditions: human, Caco-2
[18] = molecular target: T2, PXR (Homo sapiens, UniProt O75469); assay: in vitro
T2 sequence (O75469 1-434): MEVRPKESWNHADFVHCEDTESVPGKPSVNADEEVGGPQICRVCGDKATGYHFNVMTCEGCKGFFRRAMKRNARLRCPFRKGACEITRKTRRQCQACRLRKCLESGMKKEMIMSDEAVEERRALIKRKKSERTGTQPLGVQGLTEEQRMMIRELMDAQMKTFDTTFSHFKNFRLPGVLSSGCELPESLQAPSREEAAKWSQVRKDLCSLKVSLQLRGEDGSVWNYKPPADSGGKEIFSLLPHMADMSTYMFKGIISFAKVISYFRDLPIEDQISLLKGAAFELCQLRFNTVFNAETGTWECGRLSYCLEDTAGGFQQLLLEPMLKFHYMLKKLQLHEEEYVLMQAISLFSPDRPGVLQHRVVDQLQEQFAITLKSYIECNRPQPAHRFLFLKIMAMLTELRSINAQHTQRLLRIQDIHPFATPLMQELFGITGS

[19] = molecular target: T3, CYP1A2 (Homo sapiens, UniProt P05177); assay: in vitro
T3 sequence (P05177 1-516): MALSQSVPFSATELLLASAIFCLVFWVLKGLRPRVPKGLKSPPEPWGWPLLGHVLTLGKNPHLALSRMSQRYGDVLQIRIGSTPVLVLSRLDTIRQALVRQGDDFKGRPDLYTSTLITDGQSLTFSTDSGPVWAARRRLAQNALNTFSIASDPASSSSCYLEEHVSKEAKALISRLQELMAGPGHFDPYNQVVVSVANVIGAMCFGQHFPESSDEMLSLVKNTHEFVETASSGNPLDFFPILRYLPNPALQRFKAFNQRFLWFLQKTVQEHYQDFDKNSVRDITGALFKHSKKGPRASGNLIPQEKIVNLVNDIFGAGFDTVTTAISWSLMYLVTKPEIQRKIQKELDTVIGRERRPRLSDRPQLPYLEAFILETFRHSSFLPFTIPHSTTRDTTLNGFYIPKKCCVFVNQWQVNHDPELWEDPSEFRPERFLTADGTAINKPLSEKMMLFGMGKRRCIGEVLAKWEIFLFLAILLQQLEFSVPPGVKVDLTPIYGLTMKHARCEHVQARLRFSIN

[20] = in vitro; conditions: rat, hepatocytes
[21] = molecular target: HPK1 (Homo sapiens, UniProt Q92918); assay: HTRF enzymatic assay; type: biochemical
HPK1, sequence (Q92918 whole entry): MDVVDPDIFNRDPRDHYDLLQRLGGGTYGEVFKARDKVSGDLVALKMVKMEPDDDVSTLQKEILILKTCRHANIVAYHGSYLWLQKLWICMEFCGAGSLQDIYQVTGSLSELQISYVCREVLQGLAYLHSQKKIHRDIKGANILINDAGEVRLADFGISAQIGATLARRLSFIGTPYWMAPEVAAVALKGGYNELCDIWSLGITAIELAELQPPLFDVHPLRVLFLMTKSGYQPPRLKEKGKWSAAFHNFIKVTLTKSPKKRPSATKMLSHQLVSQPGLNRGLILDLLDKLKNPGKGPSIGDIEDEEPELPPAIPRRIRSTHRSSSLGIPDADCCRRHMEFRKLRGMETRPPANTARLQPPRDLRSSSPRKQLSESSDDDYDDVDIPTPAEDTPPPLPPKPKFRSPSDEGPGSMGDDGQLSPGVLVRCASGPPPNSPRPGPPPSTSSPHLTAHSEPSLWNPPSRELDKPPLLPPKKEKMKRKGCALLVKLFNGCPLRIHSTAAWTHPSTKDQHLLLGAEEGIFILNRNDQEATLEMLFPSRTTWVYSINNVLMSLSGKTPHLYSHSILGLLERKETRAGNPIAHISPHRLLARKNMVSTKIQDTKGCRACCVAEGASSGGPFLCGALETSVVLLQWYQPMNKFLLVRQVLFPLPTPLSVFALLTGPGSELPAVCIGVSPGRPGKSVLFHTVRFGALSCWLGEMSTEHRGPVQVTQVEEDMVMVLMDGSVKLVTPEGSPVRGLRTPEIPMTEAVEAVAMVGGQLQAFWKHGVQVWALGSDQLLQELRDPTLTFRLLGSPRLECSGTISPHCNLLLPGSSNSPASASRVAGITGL

T1 sequence (Q12809 whole entry): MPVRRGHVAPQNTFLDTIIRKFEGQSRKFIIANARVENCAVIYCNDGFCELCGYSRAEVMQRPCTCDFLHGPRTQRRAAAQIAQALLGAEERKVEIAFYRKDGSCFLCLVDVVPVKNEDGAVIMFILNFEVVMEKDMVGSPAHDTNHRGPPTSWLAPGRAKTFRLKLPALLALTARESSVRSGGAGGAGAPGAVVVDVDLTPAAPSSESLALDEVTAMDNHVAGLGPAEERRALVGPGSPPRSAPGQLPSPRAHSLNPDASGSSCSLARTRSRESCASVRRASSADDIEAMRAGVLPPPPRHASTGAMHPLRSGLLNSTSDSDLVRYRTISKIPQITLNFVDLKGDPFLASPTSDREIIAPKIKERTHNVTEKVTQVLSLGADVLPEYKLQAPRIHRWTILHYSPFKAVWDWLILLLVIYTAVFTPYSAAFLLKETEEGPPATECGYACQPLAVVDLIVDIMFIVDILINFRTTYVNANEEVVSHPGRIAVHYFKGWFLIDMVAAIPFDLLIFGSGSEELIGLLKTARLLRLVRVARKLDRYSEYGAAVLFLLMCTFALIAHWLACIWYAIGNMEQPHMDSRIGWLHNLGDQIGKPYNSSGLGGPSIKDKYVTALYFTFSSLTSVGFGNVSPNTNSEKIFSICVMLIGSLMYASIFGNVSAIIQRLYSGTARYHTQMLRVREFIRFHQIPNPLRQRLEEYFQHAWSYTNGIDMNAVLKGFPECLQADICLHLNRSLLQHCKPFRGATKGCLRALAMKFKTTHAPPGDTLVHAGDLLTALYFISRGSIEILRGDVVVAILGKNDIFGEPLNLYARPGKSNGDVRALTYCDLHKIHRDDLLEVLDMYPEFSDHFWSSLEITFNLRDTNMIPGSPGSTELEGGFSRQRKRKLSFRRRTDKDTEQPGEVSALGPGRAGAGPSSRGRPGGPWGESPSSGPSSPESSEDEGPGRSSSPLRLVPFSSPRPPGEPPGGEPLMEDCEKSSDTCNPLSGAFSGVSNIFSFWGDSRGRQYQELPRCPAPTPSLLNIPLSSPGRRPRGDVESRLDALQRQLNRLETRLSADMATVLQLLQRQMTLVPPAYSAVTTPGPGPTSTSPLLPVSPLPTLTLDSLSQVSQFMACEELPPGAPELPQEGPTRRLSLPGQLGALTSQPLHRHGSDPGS
CYP2D6, sequence (P10635 whole entry): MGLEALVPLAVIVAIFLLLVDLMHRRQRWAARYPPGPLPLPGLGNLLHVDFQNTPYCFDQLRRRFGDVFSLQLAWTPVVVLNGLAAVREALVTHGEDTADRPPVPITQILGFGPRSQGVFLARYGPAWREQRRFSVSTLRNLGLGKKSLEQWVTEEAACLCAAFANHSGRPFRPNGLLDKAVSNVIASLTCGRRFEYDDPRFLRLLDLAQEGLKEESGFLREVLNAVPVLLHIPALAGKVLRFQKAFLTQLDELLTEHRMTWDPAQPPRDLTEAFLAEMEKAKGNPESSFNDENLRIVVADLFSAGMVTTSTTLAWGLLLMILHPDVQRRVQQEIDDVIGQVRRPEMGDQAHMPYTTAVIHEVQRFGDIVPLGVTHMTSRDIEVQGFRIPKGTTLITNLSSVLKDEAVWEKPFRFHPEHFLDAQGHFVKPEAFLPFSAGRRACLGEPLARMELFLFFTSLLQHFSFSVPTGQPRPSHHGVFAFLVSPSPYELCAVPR
CYP2C19, sequence (P33261 whole entry): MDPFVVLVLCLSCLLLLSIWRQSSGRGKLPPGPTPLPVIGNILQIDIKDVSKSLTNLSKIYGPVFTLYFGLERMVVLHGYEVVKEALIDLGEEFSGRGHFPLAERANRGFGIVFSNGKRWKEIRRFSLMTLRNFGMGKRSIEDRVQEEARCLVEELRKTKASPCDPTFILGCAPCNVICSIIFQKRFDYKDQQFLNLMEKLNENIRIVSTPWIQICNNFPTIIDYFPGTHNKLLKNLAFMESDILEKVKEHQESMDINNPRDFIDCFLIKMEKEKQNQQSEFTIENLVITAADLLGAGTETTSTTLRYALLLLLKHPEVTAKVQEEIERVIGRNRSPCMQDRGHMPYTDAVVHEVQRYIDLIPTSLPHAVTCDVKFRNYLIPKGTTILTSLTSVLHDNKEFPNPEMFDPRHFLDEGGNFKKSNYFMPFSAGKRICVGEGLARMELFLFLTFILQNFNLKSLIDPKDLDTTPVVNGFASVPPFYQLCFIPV
CYP2C9, sequence (P11712 whole entry): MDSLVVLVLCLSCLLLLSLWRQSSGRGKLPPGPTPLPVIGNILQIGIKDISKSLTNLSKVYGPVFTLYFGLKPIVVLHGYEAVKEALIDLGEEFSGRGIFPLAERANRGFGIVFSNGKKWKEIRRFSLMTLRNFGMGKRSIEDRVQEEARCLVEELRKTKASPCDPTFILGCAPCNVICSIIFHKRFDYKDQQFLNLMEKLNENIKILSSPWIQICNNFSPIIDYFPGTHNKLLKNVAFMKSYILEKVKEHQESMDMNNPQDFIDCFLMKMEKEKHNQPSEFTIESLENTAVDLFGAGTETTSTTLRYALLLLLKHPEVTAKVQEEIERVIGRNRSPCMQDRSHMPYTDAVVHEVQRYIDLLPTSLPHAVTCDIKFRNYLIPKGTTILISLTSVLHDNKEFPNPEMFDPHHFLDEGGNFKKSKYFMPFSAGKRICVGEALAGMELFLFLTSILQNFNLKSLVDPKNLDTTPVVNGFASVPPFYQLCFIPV

CO[C@H]1CCCn2c(-c3cc4c(c5c3CNC5=O)Nc3ccc(N5CCOCC5)cc3C4(C)C)cnc21 [compound 6, Cmpd. 6]
half-life [1]: 37.7 h
CC50 [2]: 3290 nM
EC50 [3]: 9.5 nM
solubility [4]: 56.3 µM (≈ 28.1 µg/mL)
inhibition at 10 µM [5]: 53.6%
fraction unbound [6]: 0.0386
fraction unbound [7]: 0.0112
fraction unbound [8]: 0.023
inhibition at 10 µM [9]: 20.7%
CC50 [10]: 7800 nM
half-life [11]: 2.68 h
inhibition at 10 µM [12]: 74.5%
half-life [13]: 3.42 h
fraction unbound [14]: 0.046
inhibition at 10 µM [15]: 24.5%
IC50 [16]: 5160 nM
efflux ratio [17]: 2.72
activity at 1 µM [18]: 2%
inhibition at 10 µM [19]: 9%
half-life [20]: 3.93 h

COc1cccn2c(-c3cc4c(c5c3CNC5=O)Nc3ccc(N5CCOCC5)cc3C4(C)C)cnc12 [compound 4, Cmpd. 4]
IC50 [21]: 8.9 nM

COc1cccn2c(-c3cc4c(c5c3CCNC5=O)Nc3ccc(N5CCOCC5)cc3C4(C)C)cnc12 [compound 3, Cmpd. 3]
IC50 [21]: 9.3 nM

Source: doi:10.1101/2025.09.23.678079v1 (biorxiv, 2025)
